Earlier results as cited in US7141532B2, “Process for the preparation of a dry pesticidal composition containing a dicarboxylate component” (Monsanto Technology LLC, priority 2002, dated 2006).

**Q.** For O=C(O)C(=O)O [Oxalic acid], which pK1 (first proton) is on record?
**A.** about 1.25

**Q.** What about the pK2 (second proton) of the same compound?
**A.** about 4.29
